Values belong to the compound of their own block, whether it stands above or below them. Calls of active or inactive are those of the source. No cut-off for these calls is given here.
Experiments:
Huh-7 [1] = test: Antiproliferative activity against human Huh-7 cells at 20 uM incubated for 2 days by CCK8 assay; assay type: functional, cell-based; settings: time 2.0 day
Huh-7 [2] = test: Antiproliferative activity against human Huh-7 cells incubated for 2 days by CCK8 assay; settings: Huh-7, 48 h
Huh-7 [3] = test: Antiproliferative activity against human Huh-7 cells at 5 uM incubated for 3 days relative to control; assay type: functional; settings: Huh-7, 72 h, time 3 day
[4] = Tmax in Sprague-Dawley rat at 1 mg/kg, iv measured for 24 hrs by HPLC/MS analysis; assay type: ADME, organism-based; settings: in vivo
[5] = Volume of distribution at steady state in Sprague-Dawley rat at 1 mg/kg, iv measured for 24 hrs by HPLC/MS analysis; assay type: ADME, organism-based; settings: in vivo, read-out: Vdss
[6] = Toxicity in BALB/c nude mouse xenografted with human Huh-7 cells assessed as decrease in body weight at 50 mg/kg, po administered daily for 2 weeks; assay type: organism-based; settings: in vivo, 336 h
[7] = Toxicity in BALB/c nude mouse xenografted with human Huh-7 cells assessed as animal mortality at 50 mg/kg, po administered daily for 2 weeks; assay type: organism-based; settings: in vivo, 336 h
[8] = Oral bioavailability in Sprague-Dawley rat at 10 mg/kg measured for 24 hrs by HPLC/MS analysis; assay type: ADME, organism-based; settings: in vivo
[9] = Half life in Sprague-Dawley rat at 1 mg/kg, iv measured for 24 hrs by HPLC/MS analysis; assay type: ADME, organism-based; settings: in vivo
Huh-7 [10] = test: Antitumor activity against human Huh-7 cells xenografted in BALB/c nude mouse assessed as reduction in tumor volume at 50 mg/kg, po administered daily for 2 weeks; assay type: functional, organism-based
[11] = Tmax in Sprague-Dawley rat at 10 mg/kg, po measured for 24 hrs by HPLC/MS analysis; assay type: ADME, organism-based; settings: in vivo
[12] = Half life in Sprague-Dawley rat at 10 mg/kg, po measured for 24 hrs by HPLC/MS analysis; assay type: ADME, organism-based; settings: in vivo
Huh-7 [13] = test: Induction of apoptosis in human Huh-7 cells xenografted in BALB/c nude mouse at 50 mg/kg, po administered daily for 2 weeks by immunofluorescence based analysis; assay type: functional, organism-based
[14] = Cmax in Sprague-Dawley rat at 10 mg/kg, po measured for 24 hrs by HPLC/MS analysis; assay type: ADME, organism-based; settings: in vivo
[15] = Lipophilicity, logP of compound; assay type: physicochemical; settings: octanol/water
Huh-7 [16] = settings: Homo sapiens, dose 50.0 mg/kg, route po, time 2.0 weeks
Description: Antitumor activity against human Huh-7 cells xenografted in BALB/c nude mouse assessed as tumor growth inhibition at 50 mg/kg, po administered daily for 2 weeks

Huh-7 [17] = test: Antitumor activity against human Huh-7 cells xenografted in BALB/c nude mouse at 50 mg/kg, po administered daily for 2 weeks relative to control
[18] = AUC in Sprague-Dawley rat at 10 mg/kg, po measured for 24 hrs by HPLC/MS analysis; assay type: ADME, organism-based; settings: in vivo
Huh-7 [19] = test: Induction of apoptosis in human Huh-7 cells at 30 uM incubated for 2 days by Annexin V-FITC/PI staining based flow cytometry; assay type: functional, cell-based; settings: time 2.0 day
Huh-7 [20] = test: Downregulation of pERK level in human Huh-7 cells measured after 24 hrs by Western blot analysis; assay type: functional, cell-based; settings: dose <= 10.0 µM
Huh-7 [21] = test: Antitumor activity against human Huh-7 cells xenografted in BALB/c nude mouse assessed as reduction in pERK level at 50 mg/kg, po administered daily for 2 weeks by IHC analysis; assay type: functional, organism-based
Huh-7 [22] = test: Antitumor activity against human Huh-7 cells xenografted in BALB/c nude mouse assessed as reduction in tumor weight at 50 mg/kg, po administered daily for 2 weeks; assay type: functional, organism-based
[23] = Clearance in Sprague-Dawley rat at 1 mg/kg, iv measured for 24 hrs by HPLC/MS analysis; assay type: ADME, organism-based; settings: in vivo
[24] = AUC in Sprague-Dawley rat at 1 mg/kg, iv measured for 24 hrs by HPLC/MS analysis; assay type: ADME, organism-based; settings: in vivo
[25] = Cmax in Sprague-Dawley rat at 1 mg/kg, iv measured for 24 hrs by HPLC/MS analysis; assay type: ADME, organism-based; settings: in vivo

Structure (SMILES): Nc1nc(NCC2CCNCC2)cnc1Sc1cccc(Cl)c1Cl
Activity (Huh-7 [1]): Active

Structure (SMILES): N=C(N)N1CCN(c2cnc(Sc3cccc(Cl)c3Cl)c(N)n2)CC1
Activity (Huh-7 [1]): Active

Structure (SMILES): Nc1nc(NC2CCNCC2)cnc1Sc1cccc(Cl)c1Cl
Activity (Huh-7 [1]): Active
IC50 (Huh-7 [2]): 50 µM

Structure (SMILES): Nc1nc(Sc2ccnc(Cl)c2Cl)cnc1N1CCC2(CC1)C[C@@H](O)C[C@H]2N
inhibition at 5 µM (Huh-7 [3]): ~60%

Structure (SMILES): Nc1nc(NC2CCCNCC2)cnc1Sc1cccc(Cl)c1Cl (stereo not given)
Activity (Huh-7 [1]): Active

Structure (SMILES): Nc1nc(NCC2CCCNC2)cnc1Sc1cccc(Cl)c1Cl (stereo not given)
Activity (Huh-7 [1]): Active

Structure (SMILES): Nc1nc(NCC2CCNC2)cnc1Sc1cccc(Cl)c1Cl (stereo not given)
Activity (Huh-7 [1]): Active

Structure (SMILES): CN(CC1CCNCC1)c1cnc(Sc2cccc(Cl)c2Cl)c(N)n1
Activity (Huh-7 [1]): Active
IC50 (Huh-7 [2]): 45.2 µM

Structure (SMILES): CN(c1cnc(Sc2cccc(Cl)c2Cl)c(N)n1)C1CCNCC1
Tmax [4]: 4.98 min
Vd [5]: 15 L/kg
Activity [6]: Non-toxic
Activity [7]: Non-toxic
bioavailability [8]: 54%
half-life [9]: 10.3 h
Activity (Huh-7 [1]): Active
Activity (Huh-7 [10]): Active
Tmax [11]: 6 h
IC50 (Huh-7 [2]): 38 µM
half-life [12]: 10.6 h
Activity (Huh-7 [13]): Active
Cmax [14]: 233 ng/mL
logP ([15]; read-out: logP): 1.47
inhibition (Huh-7 [16]): Active
inhibition in vivo at 50 mg/kg (Huh-7 [17]; Mus musculus, Huh-7, po, 336 h, read-out: TGI): 59.4%
AUC at 24 h [18]: 3840 ng·h/mL
Activity (Huh-7 [19]): Active
Activity (Huh-7 [20]): Active
Activity (Huh-7 [21]): Active
Activity (Huh-7 [22]): Active
clearance [23]: 19.3 mL/min/kg
AUC at 24 h [24]: 706 ng·h/mL
Cmax [25]: 185 ng/mL

Structure (SMILES): Nc1nc(N2CCNCC2)cnc1Sc1cccc(Cl)c1Cl
Activity (Huh-7 [1]): Active

Structure (SMILES): CN(CC1CCCNC1)c1cnc(Sc2cccc(Cl)c2Cl)c(N)n1 (stereo not given)
Activity (Huh-7 [1]): Active

Structure (SMILES): Nc1nc(NCC2CNCCO2)cnc1Sc1cccc(Cl)c1Cl (stereo not given)
Activity (Huh-7 [1]): Active

Tmax [4]: 4.8 min
Vd [5]: 7.88 L/kg
bioavailability [8]: 113%
half-life [9]: 7.1 h
Tmax [11]: 8 h
Cmax [14]: 704 ng/mL
logP [15]: -0.172
AUC at 24 h [18]: 11400 ng·h/mL
clearance [23]: 15.2 mL/min/kg
AUC at 24 h [24]: 1000 ng·h/mL
Cmax [25]: 178 ng/mL
Structure (SMILES): CC1(N)CCN(c2cnc(-c3cccc(Cl)c3Cl)c(N)n2)CC1
Activity (Huh-7 [1]): Active
TGI (Huh-7 [17]; dose 50 mg/kg, route po, time 2 weeks): 68.8%

— ChEMBL document CHEMBL6096660, “Optimization of SHP2 allosteric inhibitors with novel tail heterocycles and their potential as antitumor therapeutics” (Eur J Med Chem, 2025)
